# According to patent US11053204B2, “Pyrimidinyloxy benzene derivatives as herbicides” (FMC Corporation, priority 2015, dated 2021):
# Assays:
# Format in all cases: in vivo
# [1] = system: wheat (Triticum aestivum); assay: Test A postemergence, visual injury rating; conditions: 0 is no effect, 100 is complete control; for Wheat plant response rating: 31 g ai/ha, 0 to 100 scale, approximately 10 days
# Procedure, shortened: (§1)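 Pre- and postemergence greenhouse screen. Soil: loam + sand. Spray carrier: solvent mixture, non-phytotoxic, with surfactant. Post timing at 1–2 leaves, height 2–10 cm. Readout: visual injury on a 0–100 scale roughly 10 days after application, untreated plants as reference.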
# kochia (Kochia scoparia) [2] = assay: Test A postemergence, visual injury rating; conditions: 0 is no effect, 100 is complete control; for Kochia plant response rating: 31 g ai/ha, 0 to 100 scale, approximately 10 days
# Procedure, shortened: as §1
# [3] = system: Italian ryegrass (Lolium multiflorum); assay: Test A postemergence, visual injury rating; conditions: 0 is no effect, 100 is complete control; for Ryegrass, Italian plant response rating: 31 g ai/ha, 0 to 100 scale, approximately 10 days
# Procedure, shortened: as §1
# [4] = system: galium (catchweed bedstraw, Galium aparine); assay: Test A postemergence, visual injury rating; conditions: 0 is no effect, 100 is complete control; for Galium plant response rating: 31 g ai/ha, 0 to 100 scale, approximately 10 days
# Procedure, shortened: as §1
# [5] = system: barnyardgrass (Echinochloa crus-galli); assay: Test A postemergence, visual injury rating; conditions: 0 is no effect, 100 is complete control; for Barnyardgrass plant response rating: 31 g ai/ha, 0 to 100 scale, approximately 10 days
# Procedure, shortened: as §1
# [6] = system: blackgrass (Alopecurus myosuroides); assay: Test A postemergence, visual injury rating; conditions: 0 is no effect, 100 is complete control; for Blackgrass plant response rating: 31 g ai/ha, 0 to 100 scale, approximately 10 days
# Procedure, shortened: as §1
# [7] = system: ragweed (common ragweed, Ambrosia elatior); assay: Test A postemergence, visual injury rating; conditions: 0 is no effect, 100 is complete control; for Ragweed plant response rating: 31 g ai/ha, 0 to 100 scale, approximately 10 days
# Procedure, shortened: as §1
# [8] = system: pigweed (Amaranthus retroflexus); assay: Test A postemergence, visual injury rating; conditions: 0 is no effect, 100 is complete control; for Pigweed plant response rating: 31 g ai/ha, 0 to 100 scale, approximately 10 days
# Procedure, shortened: as §1
# corn (Zea mays) = assay: Test A postemergence, visual injury rating; conditions: 0 is no effect, 100 is complete control; for Corn plant response rating: 31 g ai/ha, 0 to 100 scale, approximately 10 days
# Procedure, shortened: as §1
# [9] = system: giant foxtail (Setaria faberii); assay: Test A postemergence, visual injury rating; conditions: 0 is no effect, 100 is complete control; for Foxtail, Giant plant response rating: 31 g ai/ha, 0 to 100 scale, approximately 10 days
# Procedure, shortened: as §1
# rice (Oryza sativa) = assay: Test B flooded paddy test, plant response rating; conditions: 250 g ai/ha, Flood, scale of 0 to 100 where 0 is no effect and 100 is complete control, 13 to 15 days
# Procedure, shortened: (§2)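 Pots were flooded to 3 cm above the soil surface at treatment, compound applied directly to the paddy water, and that depth held throughout. Plants were kept in a greenhouse for 13 to 15 days, then visually rated against untreated controls.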
# [10] = system: barnyardgrass (Echinochloa crus-galli); assay: Test B flooded paddy test, plant response rating; conditions: 250 g ai/ha, Flood, scale of 0 to 100 where 0 is no effect and 100 is complete control, 13 to 15 days
# Procedure, shortened: as §2
# [11] = system: ducksalad (Heteranthera limosa); assay: Test B flooded paddy test, plant response rating; conditions: 250 g ai/ha, Flood, scale of 0 to 100 where 0 is no effect and 100 is complete control, 13 to 15 days
# Procedure, shortened: as §2
# [12] = system: sedge, umbrella (small-flower umbrella sedge, Cyperus difformis); assay: Test B flooded paddy test, plant response rating; conditions: 250 g ai/ha, Flood, scale of 0 to 100 where 0 is no effect and 100 is complete control, 13 to 15 days
# Procedure, shortened: as §2
# kochia (Kochia scoparia) [13] = assay: Test A preemergence, visual injury rating; conditions: for Plant response rating, Kochia: 31 g ai/ha, 0 to 100 scale, 0 no effect, 100 complete control
# Procedure, shortened: as §1
# [14] = system: Italian ryegrass (Lolium multiflorum); assay: Test A preemergence, visual injury rating; conditions: for Plant response rating, Ryegrass, Italian: 31 g ai/ha, 0 to 100 scale, 0 no effect, 100 complete control
# Procedure, shortened: as §1
# [15] = system: barnyardgrass (Echinochloa crus-galli); assay: Test A preemergence, visual injury rating; conditions: for Plant response rating, Barnyardgrass: 31 g ai/ha, 0 to 100 scale, 0 no effect, 100 complete control
# Procedure, shortened: as §1
# [16] = system: ragweed (common ragweed, Ambrosia elatior); assay: Test A preemergence, visual injury rating; conditions: for Plant response rating, Ragweed: 31 g ai/ha, 0 to 100 scale, 0 no effect, 100 complete control
# Procedure, shortened: as §1
# [17] = system: pigweed (Amaranthus retroflexus); assay: Test A preemergence, visual injury rating; conditions: for Plant response rating, Pigweed: 31 g ai/ha, 0 to 100 scale, 0 no effect, 100 complete control
# Procedure, shortened: as §1
# [18] = system: giant foxtail (Setaria faberii); assay: Test A preemergence, visual injury rating; conditions: for Plant response rating, Foxtail, Giant: 31 g ai/ha, 0 to 100 scale, 0 no effect, 100 complete control
# Procedure, shortened: as §1
# [19] = 125 g ai/ha, 0 to 100 scale (0 no effect, 100 complete control)
compound,measurement,setting,value
Cc1ccc(Oc2ncc(Cl)cn2)c(C(=O)OCCC(F)(F)F)c1 [Compound 54],Wheat plant response rating,[1],0
same,plant injury at 125 g/ha,"[1]; Triticum aestivum, post-emergence, 240 h, 125 g ai/ha, read-out: Wheat plant response rating (0 to 100 scale)",0%
same,Kochia plant response rating,kochia (Kochia scoparia) [2],0
same,pest or weed control at 125 g/ha,"kochia (Kochia scoparia) [2]; Bassia scoparia, post-emergence, 240 h, 125 g ai/ha, read-out: Kochia plant response rating (0 to 100 scale)",0%
same,"Ryegrass, Italian plant response rating",[3],0
same,pest or weed control at 125 g/ha,"[3]; Lolium multiflorum, post-emergence, 240 h, 125 g ai/ha, read-out: Ryegrass, Italian plant response rating (0 to 100 scale)",0%
same,Galium plant response rating,[4],0
same,pest or weed control at 125 g/ha,"[4]; Galium, post-emergence, 240 h, 125 g ai/ha, read-out: Galium plant response rating (0 to 100 scale)",0%
same,Barnyardgrass plant response rating,[5],0
same,pest or weed control at 125 g/ha,"[5]; Echinochloa crus-galli, post-emergence, 240 h, 125 g ai/ha, read-out: Barnyardgrass plant response rating (0 to 100 scale)",0%
same,Blackgrass plant response rating,[6],0
same,pest or weed control at 125 g/ha,"[6]; Alopecurus myosuroides, post-emergence, 240 h, 125 g ai/ha, read-out: Blackgrass plant response rating (0 to 100 scale)",0%
same,Ragweed plant response rating,[7],0
same,pest or weed control at 125 g/ha,"[7]; Ambrosia artemisiifolia, post-emergence, 240 h, 125 g ai/ha, read-out: Ragweed plant response rating (0 to 100 scale)",0%
same,Pigweed plant response rating,[8],0
same,pest or weed control at 125 g/ha,"[8]; Amaranthus retroflexus, post-emergence, 240 h, 125 g ai/ha, read-out: Pigweed plant response rating (0 to 100 scale)",0%
same,Corn plant response rating,corn (Zea mays),0
same,plant injury at 125 g/ha,"corn (Zea mays); Zea mays, post-emergence, 240 h, 125 g ai/ha, read-out: Corn plant response rating (0 to 100 scale)",0%
same,"Foxtail, Giant plant response rating",[9],0
same,pest or weed control at 125 g/ha,"[9]; Setaria faberi, post-emergence, 240 h, 125 g ai/ha, read-out: Foxtail, Giant plant response rating (0 to 100 scale)",0%
same,plant injury at 250 g/ha,"rice (Oryza sativa); Oryza sativa, 312 h",0%
same,pest or weed control at 250 g/ha,"[10]; Echinochloa crus-galli, 312 h",0%
same,pest or weed control at 250 g/ha,"[11]; Heteranthera limosa, 312 h",0%
same,pest or weed control at 250 g/ha,"[12]; Cyperus difformis, 312 h",0%
same,"Plant response rating, Kochia",kochia (Kochia scoparia) [13],0
same,pest or weed control at 125 g/ha,"kochia (Kochia scoparia) [13]; Bassia scoparia, pre-emergence, 240 h, 125 g ai/ha, 0 to 100 scale (0 no effect, 100 complete control), read-out: Kochia plant response rating",0%
same,"Plant response rating, Ryegrass, Italian",[14],0
same,pest or weed control at 125 g/ha,"[14]; Lolium multiflorum, pre-emergence, 240 h, 125 g ai/ha, 0 to 100 scale (0 no effect, 100 complete control), read-out: Ryegrass, Italian plant response rating",0%
same,"Plant response rating, Barnyardgrass",[15],0
same,pest or weed control at 125 g/ha,"[15]; Echinochloa crus-galli, pre-emergence, 240 h, 125 g ai/ha, 0 to 100 scale (0 no effect, 100 complete control), read-out: Barnyardgrass plant response rating",0%
same,"Plant response rating, Ragweed",[16],0
same,pest or weed control at 125 g/ha,"[16]; Ambrosia artemisiifolia, pre-emergence, 240 h, 125 g ai/ha, 0 to 100 scale (0 no effect, 100 complete control), read-out: Ragweed plant response rating",0%
same,"Plant response rating, Pigweed",[17],0
same,pest or weed control at 125 g/ha,"[17]; Amaranthus retroflexus, pre-emergence, 240 h, 125 g ai/ha, 0 to 100 scale (0 no effect, 100 complete control), read-out: Pigweed plant response rating",0%
same,"Plant response rating, Foxtail, Giant",[18],0
same,pest or weed control at 125 g/ha,"[18]; Setaria faberi, pre-emergence, 240 h, 125 g ai/ha, 0 to 100 scale (0 no effect, 100 complete control), read-out: Foxtail, Giant plant response rating",0%
FC(F)(F)C(F)(F)COCc1c(Br)cccc1Oc1ncc(Cl)cn1 [Compound 63],Wheat plant response rating,[1],0
same,Wheat plant response rating (0 to 100 scale),[1]; 125 g ai/ha,0
same,Kochia plant response rating,kochia (Kochia scoparia) [2],20
same,Kochia plant response rating (0 to 100 scale),kochia (Kochia scoparia) [2]; 125 g ai/ha,50
same,"Ryegrass, Italian plant response rating",[3],0
same,"Ryegrass, Italian plant response rating (0 to 100 scale)",[3]; 125 g ai/ha,0
same,Galium plant response rating,[4],0
same,Galium plant response rating (0 to 100 scale),[4]; 125 g ai/ha,30
same,Barnyardgrass plant response rating,[5],0
same,Barnyardgrass plant response rating (0 to 100 scale),[5]; 125 g ai/ha,10
same,Blackgrass plant response rating,[6],0
same,Blackgrass plant response rating (0 to 100 scale),[6]; 125 g ai/ha,0
same,Ragweed plant response rating,[7],0
same,Ragweed plant response rating (0 to 100 scale),[7]; 125 g ai/ha,0
same,Pigweed plant response rating,[8],20
same,Pigweed plant response rating (0 to 100 scale),[8]; 125 g ai/ha,60
same,Corn plant response rating,corn (Zea mays),10
same,Corn plant response rating (0 to 100 scale),corn (Zea mays); 125 g ai/ha,30
same,"Foxtail, Giant plant response rating",[9],0
same,"Foxtail, Giant plant response rating (0 to 100 scale)",[9]; 125 g ai/ha,30
same,"Plant response rating, Rice",rice (Oryza sativa),25
same,"Plant response rating, Barnyardgrass",[10],45
same,"Plant response rating, Ducksalad",[11],100
same,"Plant response rating, Sedge, Umbrella",[12],100
same,"Plant response rating, Kochia",kochia (Kochia scoparia) [13],0
same,Kochia plant response rating,kochia (Kochia scoparia) [13]; [19],0
same,"Plant response rating, Ryegrass, Italian",[14],0
same,"Ryegrass, Italian plant response rating",[14]; [19],0
same,"Plant response rating, Barnyardgrass",[15],40
same,Barnyardgrass plant response rating,[15]; [19],100
same,"Plant response rating, Ragweed",[16],0
same,Ragweed plant response rating,[16]; [19],0
same,"Plant response rating, Pigweed",[17],0
same,Pigweed plant response rating,[17]; [19],90
same,"Plant response rating, Foxtail, Giant",[18],10
same,"Foxtail, Giant plant response rating",[18]; [19],90
